Data reported in US20260232767A1, “INTERLEUKIN-23 RECEPTOR ANTAGONIST PEPTIDES FOR USE IN THE TREATMENT OF PSORIASIS” (Janssen Pharmaceutica NV, priority 2023, published 2026).
Like-named read-outs stand apart in the source and are kept apart here.

Experiment: Plasma concentrations (PK), Example 1
Type: in vivo, human
Procedure: For QD dosing, peak concentration was defined as any PK sample taken between 0.25 to <6 hours after the last morning dose and trough concentration was at least 20 hours after the last morning dose. For BID dosing, peak concentration was defined as any PK sample taken between 0.25 to <4 hours after the last dose and trough concentration was at least 8 hours after the last dose.

Which results are given for `CC(=O)NCCCC[C@@H]1NC(=O)[C@H](Cc2c[nH]c3c(C)cccc23)NC(=O)[C@H]([C@@H](C)O)NC(=O)[C@H](CC(N)=O)NC(=O)[C@@H](NC(C)=O)C(C)(C)SSC(C)(C)[C@@H](C(=O)N[C@@H](Cc2ccc(OCCN)cc2)C(=O)N[C@@H](Cc2ccc3ccccc3c2)C(=O)NC2(C(=O)N[C@@H](CCC(=O)O)C(=O)N[C@@H](CC(N)=O)C(=O)N[C@@H](Cc3cccnc3)C(=O)N(C)CC(N)=O)CCOCC2)NC1=O` [IL-23 receptor antagonist peptide, Ac-[Pen]*-N-T-[W(7-Me)]-[Lys(Ac)]-[Pen]*-Phe[4-(2-aminoethoxy)]-[2-Nal]-[THP]-E-N-[3-Pal]-Sarc-NH2 (*[Pen]-[Pen]* formdisulfidebond)]?
Number of subjects with plasma concentration below LLOQ (25 mg BID, Week 2, Intermediate): 0; Number of subjects with plasma concentration below LLOQ (25 mg BID, Week 2, Peak): 0; Number of subjects with plasma concentration below LLOQ (25 mg BID, Week 2, Trough): 1 (100.0%); Number of subjects with plasma concentration below LLOQ (25 mg BID, Week 4, Intermediate): 0; Number of subjects with plasma concentration below LLOQ (25 mg BID, Week 4, Peak): 0; Number of subjects with plasma concentration below LLOQ (25 mg BID, Week 4, Trough): 1 (100.0%); Number of subjects with plasma concentration below LLOQ (25 mg BID, Week 8, Intermediate): 0; Number of subjects with plasma concentration below LLOQ (25 mg BID, Week 8, Peak): 1 (50.0%); Number of subjects with plasma concentration below LLOQ (25 mg BID, Week 8, Trough): 2 (100.0%); Number of subjects with plasma concentration below LLOQ (25 mg BID, Week 12, Intermediate): 0; Number of subjects with plasma concentration below LLOQ (25 mg BID, Week 12, Peak): 0; Number of subjects with plasma concentration below LLOQ (25 mg BID, Week 12, Trough): 2 (100.0%); Number of subjects with plasma concentration below LLOQ (25 mg BID, Week 16, Intermediate): 0; Number of subjects with plasma concentration below LLOQ (25 mg BID, Week 16, Peak): 0; Plasma concentration, Median (25 mg BID, Week 16, Peak): 0.796 ng/mL; Number of subjects with plasma concentration below LLOQ (25 mg BID, Week 16, Trough): 1 (100.0%); Plasma concentration, Median (25 mg BID, Week 16, Trough): 0.134 ng/mL; Number of subjects with plasma concentration below LLOQ (25 mg QD, Week 1, Intermediate): 0; Number of subjects with plasma concentration below LLOQ (25 mg QD, Week 1, Peak): 0; Number of subjects with plasma concentration below LLOQ (25 mg QD, Week 1, Trough, LLOQ 0.02 ng/mL): 3 (100.0%); Number of subjects with plasma concentration below LLOQ (25 mg QD, Week 2, Intermediate): 0; Number of subjects with plasma concentration below LLOQ (25 mg QD, Week 2, Peak): 3 (100.0%); Number of subjects with plasma concentration below LLOQ (25 mg QD, Week 2, Trough): 0; Number of subjects with plasma concentration below LLOQ (25 mg QD, Week 4, Intermediate): 0; Number of subjects with plasma concentration below LLOQ (25 mg QD, Week 4, Peak): 0; Number of subjects with plasma concentration below LLOQ (25 mg QD, Week 4, Trough): 3 (100.0%); Number of subjects with plasma concentration below LLOQ (25 mg QD, Week 8, Intermediate): 0; Number of subjects with plasma concentration below LLOQ (25 mg QD, Week 8, Peak): 0); Number of subjects with plasma concentration below LLOQ (25 mg QD, Week 8, Trough): 2 (100.0%); Number of subjects with plasma concentration below LLOQ (25 mg QD, Week 12, Intermediate): 0; Number of subjects with plasma concentration below LLOQ (25 mg QD, Week 12, Peak): 0; Number of subjects with plasma concentration below LLOQ (25 mg QD, Week 12, Trough): 6; Number of subjects with plasma concentration below LLOQ (25 mg QD, Week 16, Intermediate): 0; Number of subjects with plasma concentration below LLOQ (25 mg QD, Week 16, Peak): 2; Plasma concentration, Median (25 mg QD, Week 16, Peak): 0.295 ng/mL; Number of subjects with plasma concentration below LLOQ (25 mg QD, Week 16, Trough): 2; Plasma concentration, Median (25 mg QD, Week 16, Trough): 0.057 ng/mL; Number of subjects with plasma concentration below LLOQ (50 mg QD, Week 2, Intermediate): 0; Number of subjects with plasma concentration below LLOQ (50 mg QD, Week 2, Peak): 1 (100.0%); Number of subjects with plasma concentration below LLOQ (50 mg QD, Week 2, Trough): 0; Number of subjects with plasma concentration below LLOQ (50 mg QD, Week 12, Intermediate): 0; Number of subjects with plasma concentration below LLOQ (50 mg QD, Week 12, Peak): 0; Number of subjects with plasma concentration below LLOQ (50 mg QD, Week 12, Trough): 2 (100.0%); Number of subjects with plasma concentration below LLOQ (50 mg QD, Week 16, Intermediate): 0; Number of subjects with plasma concentration below LLOQ (50 mg QD, Week 16, Peak): 0; Plasma concentration, Median (50 mg QD, Week 16, Peak): 0.917 ng/mL; Number of subjects with plasma concentration below LLOQ (50 mg QD, Week 16, Trough): 3 (100.0%); Plasma concentration, Median (50 mg QD, Week 16, Trough): 0.089 ng/mL; Number of subjects with plasma concentration below LLOQ (100 mg BID, Week 16, Intermediate): 0; Number of subjects with plasma concentration below LLOQ (100 mg BID, Week 16, Peak): 0; Plasma concentration, Median (100 mg BID, Week 16, Peak): 1.970 ng/mL; Number of subjects with plasma concentration below LLOQ (100 mg BID, Week 16, Trough): 1 (100.0%); Plasma concentration, Median (100 mg BID, Week 16, Trough): 0.451 ng/mL; Number of subjects with plasma concentration below LLOQ (100 mg QD, Week 12, Intermediate): 1 (33.3%); Number of subjects with plasma concentration below LLOQ (100 mg QD, Week 12, Peak): 1 (33.3%); Number of subjects with plasma concentration below LLOQ (100 mg QD, Week 12, Trough): 1 (33.3%); Number of subjects with plasma concentration below LLOQ (100 mg QD, Week 16, Intermediate): 1 (33.3%); Number of subjects with plasma concentration below LLOQ (100 mg QD, Week 16, Peak): 0; Plasma concentration, Median (100 mg QD, Week 16, Peak): 1.165 ng/mL; Number of subjects with plasma concentration below LLOQ (100 mg QD, Week 16, Trough): 2 (66.7%); Plasma concentration, Median (100 mg QD, Week 16, Trough): 0.132 ng/mL; Effect of body weight on systemic exposure (baseline body weight subgroups, through Week 16): not consistently evident that body weight has a major impact on systemic exposure; Drug accumulation (median trough concentrations) (between Week 1 and 16): no apparent drug accumulation; level at 672 h (human, plasma, oral, 25 mg, 25 mg BID, Week 4, Peak, read-out: Plasma concentration, Geometric Mean): 0.539 ng/mL; level at 672 h (human, plasma, oral, 25 mg, 25 mg BID, Week 4, Peak, read-out: Plasma concentration, Mean): 0.655 ng/mL; level at 672 h (human, plasma, oral, 25 mg, 25 mg BID, Week 4, Peak, read-out: Plasma concentration, Median): 0.52 ng/mL; level at 1344 h (human, plasma, oral, 25 mg, 25 mg BID, Week 8, Intermediate, read-out: Plasma concentration, Geometric Mean): 0.092 ng/mL; level at 1344 h (human, plasma, oral, 25 mg, 25 mg BID, Week 8, Intermediate, read-out: Plasma concentration, Mean): 0.092 ng/mL; level at 1344 h (human, plasma, oral, 25 mg, 25 mg BID, Week 8, Intermediate, read-out: Plasma concentration, Median): 0.092 ng/mL; level at 1344 h (human, plasma, oral, 25 mg, 25 mg BID, Week 8, Peak, read-out: Plasma concentration, Geometric Mean): 0.483 ng/mL; level at 1344 h (human, plasma, oral, 25 mg, 25 mg BID, Week 8, Peak, read-out: Plasma concentration, Mean): 0.672 ng/mL; level at 1344 h (human, plasma, oral, 25 mg, 25 mg BID, Week 8, Peak, read-out: Plasma concentration, Median): 0.545 ng/mL; level at 1344 h (human, plasma, oral, 25 mg, 25 mg BID, Week 8, Trough, read-out: Plasma concentration, Geometric Mean): 0.151 ng/mL; level at 1344 h (human, plasma, oral, 25 mg, 25 mg BID, Week 8, Trough, read-out: Plasma concentration, Mean): 0.184 ng/mL; level at 1344 h (human, plasma, oral, 25 mg, 25 mg BID, Week 8, Trough, read-out: Plasma concentration, Median): 0.143 ng/mL; level at 2016 h (human, plasma, oral, 25 mg, 25 mg BID, Week 12, Trough, read-out: Plasma concentration, Mean): 0.202 ng/mL; level at 672 h (human, plasma, oral, 25 mg, 25 mg QD, Week 4, Peak, read-out: Plasma concentration, Geometric Mean): 0.469 ng/mL; level at 672 h (human, plasma, oral, 25 mg, 25 mg QD, Week 4, Peak, read-out: Plasma concentration, Mean): 0.591 ng/mL; level at 672 h (human, plasma, oral, 25 mg, 25 mg QD, Week 4, Peak, read-out: Plasma concentration, Median): 0.425 ng/mL; level at 1344 h (human, plasma, oral, 25 mg, 25 mg QD, Week 8, Intermediate, read-out: Plasma concentration, Geometric Mean): 0.168 ng/mL; level at 1344 h (human, plasma, oral, 25 mg, 25 mg QD, Week 8, Intermediate, read-out: Plasma concentration, Mean): 0.211 ng/mL; level at 1344 h (human, plasma, oral, 25 mg, 25 mg QD, Week 8, Intermediate, read-out: Plasma concentration, Median): 0.177 ng/mL; level at 1344 h (human, plasma, oral, 25 mg, 25 mg QD, Week 8, Peak, read-out: Plasma concentration, Geometric Mean): 0.284 ng/mL; level at 1344 h (human, plasma, oral, 25 mg, 25 mg QD, Week 8, Peak, read-out: Plasma concentration, Mean): 0.443 ng/mL; level at 1344 h (human, plasma, oral, 25 mg, 25 mg QD, Week 8, Peak, read-out: Plasma concentration, Median): 0.325 ng/mL; level at 1344 h (human, plasma, oral, 25 mg, 25 mg QD, Week 8, Trough, read-out: Plasma concentration, Geometric Mean): 0.061 ng/mL; level at 1344 h (human, plasma, oral, 25 mg, 25 mg QD, Week 8, Trough, read-out: Plasma concentration, Mean): 0.068 ng/mL
